Tests used:
Type in all cases: in vivo
[1] = tested on: AMARE; test: Post-emergence herbicidal activity, glasshouse pot test; conditions: Amaranthus retroflexus; application post-emergence; rate 1000 g/Ha; evaluated after 13 days
Description: (§1) Seeds of a variety of test species were sown in standard soil in pots. After 8 days cultivation (post-emergence) under controlled conditions in a glasshouse (at 24/16° C., day/night; 14 hours light; 65% humidity), the plants were sprayed with an aqueous spray solution derived from the formulation of the technical active ingredient in acetone/water (50:50) solution containing 0.5% Tween 20 (polyoxyethelyene sorbitan monolaurate, CAS RN 9005-64-5). The test plants were then grown in a glasshouse under controlled conditions (at 24/16° C., day/night; 14 hours light; 65% humidity) and watered twice daily. After 13 days, the test was evaluated (5=total damage to plant; 0=no damage to plant).

[2] = tested on: ABUTH; test: as above; conditions: Abutilon theophrasti; application post-emergence; rate 1000 g/Ha; evaluated after 13 days
Description: as §1

[3] = tested on: SETFA; test: as above; conditions: Setaria faberi; application post-emergence; rate 1000 g/Ha; evaluated after 13 days
Description: as §1

[4] = tested on: ZEAMX; test: as above; conditions: Zea mays; application post-emergence; rate 1000 g/Ha; evaluated after 13 days
Description: as §1

[5] = tested on: ECHCG; test: as above; conditions: Echinochloa crus-galli; application post-emergence; rate 1000 g/Ha; evaluated after 13 days
Description: as §1

[6] = tested on: AMARE; test: Pre-emergence herbicidal activity, glasshouse pot test; conditions: rate 1000 g/Ha, evaluated after 13 days, scale 0-5
Description: as §1, with “After” for “After 8 days”, “for one day (pre-emergence)” for “(post-emergence)”

[7] = tested on: ABUTH; test: as above; conditions: rate 1000 g/Ha, evaluated after 13 days, scale 0-5
Description: as §1, with “After” for “After 8 days”, “for one day (pre-emergence)” for “(post-emergence)”

[8] = tested on: SETFA; test: as above; conditions: rate 1000 g/Ha, evaluated after 13 days, scale 0-5
Description: as §1, with “After” for “After 8 days”, “for one day (pre-emergence)” for “(post-emergence)”

[9] = tested on: ZEAMX; test: as above; conditions: rate 1000 g/Ha, evaluated after 13 days, scale 0-5
Description: as §1, with “After” for “After 8 days”, “for one day (pre-emergence)” for “(post-emergence)”

[10] = tested on: ECHCG; test: as above; conditions: rate 1000 g/Ha, evaluated after 13 days, scale 0-5
Description: as §1, with “After” for “After 8 days”, “for one day (pre-emergence)” for “(post-emergence)”

Structure (SMILES)	Post-emergence herbicidal activity AMARE (damage score 0-5) [1]	Post-emergence herbicidal activity ABUTH (damage score 0-5) [2]	Post-emergence herbicidal activity SETFA (damage score 0-5) [3]	Post-emergence herbicidal activity ZEAMX (damage score 0-5) [4]	Post-emergence herbicidal activity ECHCG (damage score 0-5) [5]	AMARE damage score, application pre-emergence [6]	ABUTH damage score, application pre-emergence [7]	SETFA damage score, application pre-emergence [8]	ZEAMX damage score, application pre-emergence [9]	ECHCG damage score, application pre-emergence [10]
C=CC1C(O)N(c2cc(C(F)(F)F)ccn2)C(=O)N1C (stereo not drawn) [Compound A31]	5	5	5	4	5	5	5	5	2	5
C=Cc1cnc(N2C(=O)N(C)C(C)C2O)cc1C(F)(F)F (stereo not drawn) [Compound A62]	5	5	5	2	5	5	4	3	2	4
CC1C(O)N(c2cc(C(F)(F)F)ccn2)C(=O)N1O (stereo not drawn) [Compound A64]	5	4	4	1	5	5	2	3	2	4
CC1C(O)N(c2cc(C(F)(F)F)c(C(=O)NC(C)(C)C)cn2)C(=O)N1C (stereo not drawn) [Compound A65]	5	5	5	5	5	5	5	5	3	5
CON1C(=O)N(c2ccc(C(=O)NC(C)(C)C)cn2)C(O)C1C (stereo not drawn) [Compound A66]	5	5	5	5	5	5	5	4	2	5
CC1C(O)N(c2ccc(C(=O)NC(C)(C)C)cn2)C(=O)N1C (stereo not drawn) [Compound A67]	5	5	5	4	5	5	5	5	3	5
CN1C(=O)N(c2cc(C(F)(F)F)ccn2)C(O)C1CC(F)(F)F (stereo not drawn) [Compound A68]	0	0	0	0	0	0	0	0	0	0
CCOC1C(O)N(c2cc(Cl)c(C(=O)NC(C)(C)C)cn2)C(=O)N1C (stereo not drawn) [Compound A69]	4	5	4	3	5	5	5	5	2	5
CON1C(=O)N(c2cc(Cl)c(C(=O)NC(C)(C)C)cn2)C(O)C1C (stereo not drawn) [Compound A70]	5	5	5	5	5	5	5	5	3	5
CC1C(O)N(c2cc(Cl)c(C(=O)NC(C)(C)C)cn2)C(=O)N1C (stereo not drawn) [Compound A71]	5	5	5	4	5	5	5	0	3	5
CON1C(=O)N(c2cc(C(F)(F)C(F)(F)F)ccn2)C(O)C1C (stereo not drawn) [Compound A73]	5	5	5	3	5	5	5	5	3	4
CC1C(O)N(c2ccc(C(F)(F)F)cn2)C(=O)N1C (stereo not drawn) [Compound A74]	5	5	5	3	4	5	5	4	3	4
O=C1N2CCOC2C(O)N1c1cc(C(F)(F)F)ccn1 (stereo not drawn) [Compound A75]	5	5	5	2	5	5	5	4	2	4
COCN1C(=O)N(c2cc(C(F)(F)F)ccn2)C(O)C1C (stereo not drawn) [Compound A76]	5	5	4	1	4	5	5	4	2	3
COC[C@@H]1C(O)N(c2cc(C(F)(F)F)ccn2)C(=O)N1C (stereo partly drawn) [Compound A77]	5	5	5	5	5	5	5	5	3	5

Reference: US11608323B2 (SYNGENTA LIMITED, priority 2013, dated 2023)
